For data set [1], the system named is DOHH2 human tumor xenograft. The data set can be described thus: CAS024 combined with bendamustine in subcutaneous DOHH2 xenografts in SCID mice. The format is in vivo. The note with it: CAS024 10 μg IV days 0, 4, 8; Bendamustine 10 mg/kg IP days 0, 2, 4, 7, 9. As to the method: Establishment of tumor xenografts and sorting into treatment groups.
Monitoring and endpoints. Mice were monitored daily by visual inspection. […] Tumor volumes were calculated as described above.

Data set [2] concerns chronic lymphocytic leukemia (CLL) cells. To be noted: in vitro; cited from earlier work.
The target of data set [3] is T1, CD37 (Homo sapiens, UniProt P11049).
T1 sequence (P11049 1-281): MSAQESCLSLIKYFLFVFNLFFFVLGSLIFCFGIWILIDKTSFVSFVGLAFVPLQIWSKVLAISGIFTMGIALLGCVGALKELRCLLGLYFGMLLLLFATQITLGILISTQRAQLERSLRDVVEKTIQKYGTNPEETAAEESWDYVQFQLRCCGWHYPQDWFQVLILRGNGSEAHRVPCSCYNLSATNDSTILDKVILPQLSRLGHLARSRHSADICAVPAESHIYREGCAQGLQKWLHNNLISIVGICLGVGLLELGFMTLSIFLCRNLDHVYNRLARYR
The data set can be described thus: FACS competitive binding / cross blocking of FITC-conjugated anti-CD37 on BJAB cells. To be noted: FIGS. 5A-5E. As to the method: FITC labeled antibody conjugates were titrated from 10 ng/mL to 10 μg/mL in an initial binding study to determine the optimal amount to use in the blocking studies. The level chosen was just below saturating amounts, and was kept constant in the subsequent assays, while levels of blocking antibody were increased over a 10-fold range. Data were plotted as percent of maximal binding versus concentration of blocking antibody, so that higher levels indicate less efficient blocking, while lower levels indicate more efficient blocking activity.
For competitive binding assays, 2.5×10^5 BJAB cells were incubated in 96-well V-bottom plates in staining media (PBS with 2% mouse sera) with the FITC-conjugated anti-CD37 mAbs at 1.25 μg/mL in the presence of unconjugated anti-CD37 MAb at the indicated concentrations (2.5, 1.25, 0.6, or 0.3 μg/ml) or staining media for 45 minutes on ice in the dark. Blocking antibodies and FITC labeled antibody conjugates were added to reactions prior to addition of cells. The cells were then washed […] with PBS and fixed with 1% paraformaldehyde (USB, Cleveland, Ohio). The treated cells were analyzed by flow cytometry using a FACsCalibur instrument and CellQuest software (BD Biosciences, San Jose, Calif.). […]

Data set [4] relates to Rec-1 cells. The data set is described as follows: Rec-1 growth inhibition (ATP viable cell detection), combination index with chemotherapeutic agents. Type of data set: cell-based, human. The note with it: 96 hours.
Description: Rec-1 cells, a CD37+ human B cell line established from a patient with mantle cell lymphoma, were tested for growth inhibition in response to crosslinked CAS-024 in the presence or absence of doxorubicin, vincristine, or fludarabine (see FIG. 7). CAS-024 was preincubated with anti-human IgG F(ab)′2 to crosslink the protein. Cells were cultured with medium alone or with medium containing various concentrations of the crosslinked CAS-024 protein, in the presence or absence of various concentrations of doxorubicin, vincristine, or fludarabine. Cultures were incubated for 96 hours and growth inhibition was assessed using an ATP viable cell detection system (i.e., viable cells quantified by ATP release).
A numerical value, assigned to each drug combination at predefined dose levels, enabled quantitative drug/drug interaction comparisons between different drug combinations. Results were expressed as combination indices (CI) vs. effect level, in which effect level represented percent inhibition of cell growth. The mean CI±SEM for each effect level was averaged over three experiments. A CI<1.0 was considered synergy, CI=1.0 additivity, and CI>1.0 antagonism.
Data set [5] deals with DOHH2 human tumor xenograft. The data set is described as follows: Dose response in established subcutaneous DOHH2 xenograft model in SCID mice. The note with it: days 0, 4, 8.
Description: The objective of this experiment was to examine the dose response to treatment with CAS-024 in a model of established subcutaneous human tumor (DOHH2) xenograft model in SCID mice.
On day 8 post-tumor inoculation, palpable tumors were apparent in a majority of mice. The tumor-bearing mice were sorted into four groups with equivalent mean tumor volumes (n=14 per group; 2 cages of 5 mice and 1 cage of 4 mice for each group). The day of the sort was defined as day 0. Tumor diameters were determined with a pair of calipers and tumor volumes were calculated using the formula: V=½[length×(width)^2].
Tumor-bearing groups of SCID mice were treated on days 0, 4, and 8 via IP injection of 0.2 mL of PBS containing 200 μg of huIgG (negative control) or 200, 100, 30, 10, or 3 μg of CAS-024. The two lowest dose solutions of CAS-024 were prepared on the day of injection to avoid the need to add a carrier protein to the most dilute solutions.
Dose solutions were prepared in similar volumes and the contents of the tubes were noted on removable labels. An investigator who was not treating or assessing the mice placed a color code on each tube and noted the code and identity of the tube contents in a laboratory notebook. Mice were monitored daily by visual inspection. Weights were determined weekly, and tumor diameters were determined at least 3 times per week (M, W, F) by an observer blinded (see above) to the treatment groups. Tumor volumes were calculated as described above. Mice were euthanized if their tumor volume reached more than 1500 mm^3 (or 1200 mm^3 on Fridays). Death was not an endpoint in the tumor protocols and, unless noted otherwise, “survival” of a mouse was determined by the time it was euthanized due to its tumor volume reaching the predetermined limits.
All statistical analyses were performed using GraphPad Prism software. Significant differences in mean tumor volumes and mean relative tumor volumes were determined using a one-way ANOVA for nonparametric data (Kruskal-Wallis test) with Dunn's multiple comparison post test. To examine differences between each of the CAS-024 treated groups and the huIgG group, all groups were compared. For comparisons between the CAS-024 groups only, the huIgG group was excluded. In addition, the high and middle dose (200, 100, and 30 μg) groups were analyzed as a one data set, and the middle and low dose (30, 10, and 3 μg) groups were analyzed as another data set. Significant differences in survival of mice over time were determined using Kaplan-Meier survival analysis with a log-rank test for comparing survival curves. Significant differences in the incidence of tumor-free mice were determined using Fisher's exact test. p values<0.05 were considered significant.
The test system of a further data set is SU-DHL-6 cells. The data set can be described thus: SU-DHL-6 growth inhibition (ATPlite), combination index. Type of data set: cell-based, human. As to the method:
(§1) The final volume in each well was 150 μL.
In general terms: In ATP-based viability assays light output follows the ATP content of the culture.

Data set [6] deals with Rec-1 cells. The data set is described as follows: Rec-1 growth inhibition (ATPlite), combination index with bendamustine. The format is cell-based, human. To be noted: crosslinked CAS024 combined with bendamustine; 96 hr. As to the method:
as §1

The target of data set [7] is T1, CD37. The data set can be described thus: FMAT competition binding assay against labeled CAS-006 on Ramos cells. Set-up: CD-37 found on Ramos cells (a B-lymphoblastoid cell line derived from a Burkitt lymphoma); endogenous in cells; host or cells: Ramos cells. The text has this:
A competition assay was used to compare the binding affinity of different anti-CD37 specific small modular immunopharmaceutical (SMIP) molecules to CD-37 found on Ramos cells (a B-lymphoblastoid cell line derived from a Burkitt lymphoma). An SEC purified chimeric anti-CD37 SMIP molecule (CAS-006, SEQ ID NO:247) was labeled with the FMAT Blue® fluorescence dye (Applied Biosystems) and used as the standard to compete with purified unlabeled chimeric anti-CD37 SMIP molecule (positive control) and purified unlabeled humanized anti-CD37 SMIP test molecules. […] The plates were incubated at room temperature for 30 min and read on an 8200 Cellular Detection System (Applied Biosystems) gated for middle cell size and low signal.
A competition assay as described in Example 4 was used to compare the binding affinity of different mouse-human hybrid anti-CD37 SMIP molecules compared to CAS-024 binding to Ramos cells. An SEC purified chimeric anti-CD37 SMIP molecule (CAS-006, SEQ ID NO:247) was labeled with the FMAT Blue® fluorescence dye (Applied Biosystems) and used as the standard to compete with purified unlabeled chimeric anti-CD37 SMIP molecule (CAS-006, positive control) and purified unlabeled humanized anti-CD37 SMIP test molecules—-CAS-002 (SEQ ID NO:48), CAS-003 (SEQ ID NO:52), CAS-014 (SEQ ID NO:251), CAS-017 (SEQ ID NO:252), and CAS-024 (SEQ ID NO:253).

In data set [8] the test system is DOHH2 human tumor xenograft. The data set is described as follows: CAS-024 and Rituxan as single agents in established DOHH2 xenograft model in SCID mice. The note with it: for Death (other than for Tumor Size Sacrifice) / Median Survival Time: 200 μg IP days 0, 4, 8; for Median Survival Time: cumulative 600 μg; for mean tumor volume compared with human IgG treated group: 200 μg IP, day 4 through day 11. Type of data set: in vivo. As to the method: The objective of this study was to examine the efficacy of CAS-024 and RITUXAN® (rituximab) as single agents in a model of established human tumor (DOHH2) xenografts in SCID mice.
Mice were monitored daily by visual inspection. […] Tumor volumes were calculated as described above. Tumor volumes on the last day that all mice were alive in each group were also expressed in terms of tumor volumes relative to day 0, using the formula: […]
A general note: Xenograft models place foreign cells or tissue in a host animal.

Entries after “also recorded” stand apart in the source; their conditions may differ. Marks after values point to notes of the source that are not given here.

As to `Cn1c(CCCC(=O)O)nc2cc(N(CCCl)CCCl)ccc21` [Bendamustine, 4-[5-[Bis(2-chloroethyl)amino]-1-methylbenzimidazol-2-yl]butanoic acid, reference compound], in [1], the “Median Survival Time” value came out at 17 days; the “clinical signs of toxicity” value is “scruffy coats and diarrhea”.

“CAS-006: chimeric anti-CD37 SMIP protein (mVLmVH) with variable regions of mouse mAb G28-1, SEQ ID NO:247”: the “combination effect with fludarabine on killing of CLL cells” value in data set [2] is reported as “acts synergistically”. Also, in the data set with CD37 [3], the “blocking activity (inhibition of binding of FITC-conjugated anti-CD37)” value is “highest level of blocking activity”.

In the case of “G28-1 VH (M99F, Y102S)—VL (T25A) scFv (SSC-P) H WCH2 WCH3 [CAS-024]”, the “combination index (CI)” value in the data set on Rec-1 cells [4] (crosslinked CAS-024 combined with doxorubicin) is on record as “additive”; with Rec-1 cells [4] (crosslinked CAS-024 combined with fludarabine), under 1.0; in the data set with Rec-1 cells [4] (crosslinked CAS-024 combined with vincristine), under 1.0. Further, the “Death (Not Due to Large Tumor Volume)” value is 0/14 in [5] (3 μg per IP injection); 0/14 in data set [5] (10 μg per IP injection); 0/14 in [5] (30 μg per IP injection); 1/14^h in data set [5] (100 μg per IP injection); 0/14 in data set [5] (200 μg per IP injection). For the same compound, the “Median Survival Time” value in [5] (3 μg per IP injection, cumulative 9 μg) is 19 days; in [5] (10 μg per IP injection, cumulative 30 μg), 28 days; in data set [5] (30 μg per IP injection, cumulative 90 μg), 35 days; in [5] (100 μg per IP injection, cumulative 300 μg), “Undefined”; in data set [5] (200 μg per IP injection, cumulative 600 μg), “Undefined^ef”; in data set [1], 17^b Days. In data set [8], the “Median Survival Time” value was “Undefined^d,e”. Also, in [5] (3 to 200 μg per IP injection), the “effect on the growth of DOHH2 tumors” value is “dose-dependent inhibitory effect”. Further, in [1], the “clinical signs of toxicity” value was “No clinical signs of toxicity”. Moreover, the “combination effect on cell growth (CI)” value is given as “did not result in synergistic inhibitory effects” in the data set on SU-DHL-6 cells (CAS-024 combined with chlorambucil) and “synergistically inhibited” in the data set with SU-DHL-6 cells (crosslinked CAS024 combined with bendamustine, 96 hr). In the data set on Rec-1 cells [6], the “combination effect on target cell growth (CI)” value was “synergistic inhibitory effects”. Further, the “greater affinity for CD37 than humanized VLVH anti-CD37 SMIP molecules with 16 amino acid linker” value at CD37 [7] (FIG. 3) is given as at most 4 fold. In addition, the “binding affinity for CD37 compared with parent CAS-006” value at CD37 [7] (competition with FMAT Blue labeled CAS-006) is given as “substantially the same affinity; also recorded: same binding affinity as CAS-006”. Besides, in [8], the “Death (other than for Tumor Size Sacrifice)” value is on record as 1/15^f. In addition, the “mean tumor volume compared with human IgG treated group” value in [8] is “significantly lower than that of the human IgG treated group”.

In the case of “rituximab [Rituxan ®, reference compound]”, in [8], the “Death (other than for Tumor Size Sacrifice)” value was 0/15, the “Median Survival Time” value worked out at 43 days and the “mean tumor volume compared with human IgG treated group” value was “significantly lower than that of the human IgG treated group”.

The values above are taken from patent publication US9101609B2, “CD37 immunotherapeutic and combination with bifunctional chemotherapeutic thereof” (EMERGENT PRODUCT DEVELOPMENT SEATTLE, LLC, priority 2008, dated 2015).
